The values below come from patent US20040162350A1, “Method of treating a non-cancerous disease of the male prostate” (priority 2003, published 2004).

For one assay, the system named is male volunteers. Kind of assay: Number of night awakenings with the need to urinate, recorded by male volunteers over six-week trial periods. Type of assay: in vivo, human. As to conditions: volunteers who woke three or more times a night in more than 28 nights of six-week baseline; multiple daily doses of 15-20 grams; result in at least two thirds of the nights of a subsequent six week trial period; seen in some volunteers. From the text:
A group of male volunteers recorded for six weeks the number of times a night that they were awakened with the need to urinate. Those who woke up three or more times a night in more than 28 nights durng the six week trial were then given multiple daily doses of 15-20 grams of 2-amino-4-carbamoylbutanoic acid and continued to record the number of times a night that they were awakened with the need to urinate.

The subject of a further assay is prostate enlargement. Kind of assay: Treatment of a person with prostate enlargement diagnosed as a non-cancerous condition. Type of assay: in vivo, human. The conditions noted are these: 10 grams with each meal, total 40 grams daily. From the text: A person with prostate enlargement diagnosed as a non-cancerous condition started a regimen of taking 10 grams of 2-amino-4-carbamoylbutanoic acid with each meal for a total of 40 grams daily.

Turning to `NC(=O)CCC(N)C(=O)O` (stereo not drawn) [2-amino-4-carbamoylbutanoic acid], the “number of times a night awakened with the need to urinate” value with male volunteers is “diminished from three or more times a night to twice, once, and even none at all”. Further, the relief felt result in the assay on prostate enlargement (after a few weeks) is listed as “felt relief”. In the assay on prostate enlargement (after two months of this regimen), the prostate size result is “shrunk to normal size”.
